The results in this text go back to patent publication US7838562B2, “Methods of inhibiting vascular permeability and apoptosis” (University of Connecticut, priority 2004, dated 2010).

For assay [1], the system named is VE-cadherin. As to the kind of experiment: VE-cadherin localization by immunofluorescence in HUVEC. As to conditions: 30 minutes; 10 nM (S1P 100 nM). The format is cell-based, human. As for the experimental part:
The effects of FTY720-P and (R)-AFD on the localization of VE-cadherin were studied using immunofluorescence analysis. In this study, 2×10^5 cells were plated in 35 millimeter glass bottom petri dishes. Three days later, the cells were washed and serum starved for 3 hours before treatments. Then, the cells were washed with ice-cold PBS, fixed, and immunofluorescence analysis with VE-cadherin antibody was conducted (1 μg/ml Santa Cruz). The primary antibody staining was visualized with Rhodamine-conjugated goat anti-mouse (1:1000, Cappel) IgG. Confocal microscopy was conducted on a Zeiss LSM 510 laser-scanning confocal microscope. Rhodamine fluorescence was excited using a 543 nm Helium/Neon laser and emitted fluorescence was detected with a […] long-pass filter.

Assay [2] concerns phospho-Akt. As to the kind of experiment: Western blot of Akt phosphorylation in HUVEC. It is filed as cell-based, human. As to conditions: 5 minute stimulation. An excerpt: (§1) Endothelial cell morphogenesis, a phenomenon that requires endothelial cell migration, survival and adherens junction assembly, is mediated by the ligand-dependent activation of S1P1 and S1P3 receptors. […] The effects of FTY720-P and analogs on Akt and ERK phosphorylation in HUVEC were studied in a Western blot analysis. Confluent cultures of HUVEC cells were serum starved for two hours in 0.1% ffa-BSA M199 before treatments. Then, they were washed with ice-cold phosphate buffered saline (PBS) containing 1 mM sodium fluoride and 1 mM sodium orthovanadate and homogenized in radioimmunoprecipitation assay buffer (0.1% sodium dodecyl sulfate (SDS), 0.5% sodium deoxycholate, 1% NP-40, 1 mM sodium orthovanadate, 50 mM β-glycerophosphate and 1× protease inhibitor cocktail). Samples were centrifuged 10,000×g for 10 minutes, and protein concentrations of supernatants were determined by Bradford assay (BioRad Protein Dye Reagent). Equal amounts of protein were separated on a 10% polyacrylamide gel and blotted to a nitrocellulose membrane. Immunoblot analysis was performed using Phospho-Akt, Akt, phospho-ERK1/2 or ERK-1/2 antibodies.

Assay [3] deals with VEGF-induced vascular permeability. The experiment in a line: mouse ear microvascular permeability assay (VEGF-induced). The format is in vivo, FVB/N mice. To be noted: mice, single oral administration (gavage, 50 μg) 5 hours prior. As for the experimental part:
The role of plasma borne FTY720-P or (R)-AFD in the regulation of vascular permeability was tested in vivo. In order to test this possibility, an in vivo vascular permeability model was used in FTY720, (R)-AFD or (S)-AAL-pretreated mice. […] Five hours post-gavage, animals were anesthetized with 2% Avertin™ (0.5 cc/20 g) and infused through the tail vein with 100 μl FITC-dextran (5 mg/ml, 165 kDa). Animals were placed on a warming table under a fluorescent dissecting microscope (Zeiss STV11, Zeiss, Inc.) and the central vessels in the ear were imaged. Control saline or mouse vascular endothelial growth factor (mVEGF, 10 ng/ml) was injected subdermally into the middle ear using a 30 gauge needle (30 μl). Ear vasculature was then imaged with fixed exposure times in a stationary position from 5 minutes to 120 minutes post-injection. Fluorescence images were then quantified using pixel-based threshold in ImageProPlus (Media Cybernetics, Inc.) and quantified.

Assay [4] deals with HUVEC. As to the kind of experiment: HUVEC migration (96 well chemotaxis microchamber). To be noted: for migration induced by conditioned medium: compound incubated with HUVEC for 3 hours, conditioned medium used as chemoattractant; for induction of endothelial cell migration: compound used directly as chemoattractant, 4 hours.
Description: Briefly, polycarbonate filters with a pore size of 8 micrometers (μm) were coated with 5 micrograms per milliliter (μg/ml) fibronectin. […] Approximately 5×10^4 cells suspended in M199 with 0.1% bovine serum albumin were placed in the upper compartment. The cells were allowed to migrate for 4 hours at 37° C. in a humidified chamber with 5% CO2. After the incubation period, the filter was removed, and cells were stained in 0.1% crystal violet and eluted with 10% acetic acid in 96-well plates.
After incubation, conditioned medium was removed, centrifuged at 1,000×g for 10 minutes, and used in the migration assay.
Assay [5] concerns phospho-ERK-1/2. The experiment in a line: Western blot of ERK-1/2 phosphorylation in HUVEC. It is filed as cell-based, human. To be noted: 5 minute stimulation.
Text: as §1

Assay [6] concerns kinase activity present in HUVEC (sphingosine kinase). As to the kind of experiment: in vitro kinase assay with total cell extract from HUVEC. The format is biochemical, human. To be noted: HUVEC total cell extract; 100 μM FTY720 or AAL, 20 μM sphingosine; 30 minutes. As for the experimental part:
To confirm that FTY720 and (R)-AAL are phosphorylated by endothelial cells, an in vitro kinase assay was performed with both total cell extract and conditioned medium from HUVEC. […] Cells were scraped at 4° C. with 400 μl of 25 mM HEPES pH 7.5, […], 1× protease inhibitor mixture, and disrupted by brief sonication. Cellular homogenates were centrifuged for 10 minutes, 4° C. at 20,000×g. In the kinase assay, 300 μl of conditioned medium (derived from 5×10^5 cells for 3 hours of incubation) or 10 μg of total cell extract from HUVEC were used as a source of kinase activity. […] Lipids were extracted and samples were resuspended in 50 μl of chloroform. Lipids were resolved by TLC on Silica Gel G60 using 1-butanol/acetic acid/water (60/20/20 volume/volume) buffer and quantified with a PhosphorImager (Molecular Dynamics).

The target in assay [7] is T1, SK2 (Mus musculus, UniProt Q9JIA7).
T1 sequence (Q9JIA7 1-617): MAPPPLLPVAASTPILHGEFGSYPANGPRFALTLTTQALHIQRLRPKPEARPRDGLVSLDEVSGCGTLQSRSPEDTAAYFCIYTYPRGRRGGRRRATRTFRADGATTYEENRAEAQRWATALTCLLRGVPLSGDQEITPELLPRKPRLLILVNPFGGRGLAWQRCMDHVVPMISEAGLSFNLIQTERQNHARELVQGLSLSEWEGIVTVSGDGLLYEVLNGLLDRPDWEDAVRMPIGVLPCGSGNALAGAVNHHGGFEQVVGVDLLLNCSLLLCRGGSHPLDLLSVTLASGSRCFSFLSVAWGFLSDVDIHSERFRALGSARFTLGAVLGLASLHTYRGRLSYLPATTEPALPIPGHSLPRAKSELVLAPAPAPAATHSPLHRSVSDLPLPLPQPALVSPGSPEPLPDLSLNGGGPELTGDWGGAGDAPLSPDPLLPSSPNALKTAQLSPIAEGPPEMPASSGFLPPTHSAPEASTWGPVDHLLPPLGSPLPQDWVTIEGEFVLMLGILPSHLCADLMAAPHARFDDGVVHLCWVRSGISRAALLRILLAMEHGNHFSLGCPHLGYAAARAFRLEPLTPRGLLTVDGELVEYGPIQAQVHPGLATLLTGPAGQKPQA
To be noted: SK2-[…]T; 100 μM FTY720 or (R)-AAL, 20 μM sphingosine.

Assay [8] deals with SK1 (Mus musculus, UniProt Q8CI15). As to conditions: SK1-293T; 20 μM sphingosine.
SK1, sequence (Q8CI15 1-388 isoform Q8CI15-2): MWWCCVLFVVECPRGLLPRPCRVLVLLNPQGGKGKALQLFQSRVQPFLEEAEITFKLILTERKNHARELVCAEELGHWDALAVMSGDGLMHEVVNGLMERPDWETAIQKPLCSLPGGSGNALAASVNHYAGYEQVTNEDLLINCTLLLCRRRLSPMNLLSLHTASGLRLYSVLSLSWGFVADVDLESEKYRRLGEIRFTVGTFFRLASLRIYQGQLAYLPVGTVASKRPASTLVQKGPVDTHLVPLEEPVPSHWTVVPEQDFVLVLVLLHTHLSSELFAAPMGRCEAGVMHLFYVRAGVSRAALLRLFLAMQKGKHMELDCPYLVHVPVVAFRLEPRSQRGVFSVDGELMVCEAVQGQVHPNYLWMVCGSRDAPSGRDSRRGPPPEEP

For the compound `CCCCCCCCc1ccc(CCC(N)(CO)CO)cc1` [FTY720, 2-amino-2-[2-(4-octaphenyl)ethyl]propane-1,3 diol, reference compound], the “VE-cadherin localization at cell-cell contact regions / translocation to adherens junctions” value in assay [1] is on record as “did not induce VE-cadherin translocation to the adherens junctions”. The “Akt phosphorylation (in words)” value in assay [2] was “did not induce phospho-Akt or phospho-ERK-1/2 levels”. For the same compound, the “inhibition of vascular permeability induced by VEGF” value in assay [3] is reported as “profoundly suppressed vascular permeability induced by VEGF”. Further, in assay [4], the “migration induced by conditioned medium” value is “activated into potent chemoattractants for endothelial cells” and the “induction of endothelial cell migration” value was “Neither FTY720 nor its structural analog (R)-AAL induced endothelial cell migration”. In assay [5], the “ERK-1/2 phosphorylation (in words)” value is “did not induce phospho-Akt or phospho-ERK-1/2 levels”. Moreover, the “specific activity (phosphorylation of the substrate)” value (“specific activity” below) in assay [6] was determined as 3.85 ± 0.75 pmol/mg/min. Moreover, the “specific activity” value in assay [7] worked out at 41.6 pmol/min/mg.
As for `CCCCCCCCCCCCC/C=C/[C@@H](O)[C@@H](N)CO` [sphingosine, Sphingosine], the “specific activity” value in assay [6] came out at 75.7 ± 6 pmol/mg/min; in assay [8] it was 48.1 pmol/mg/min; in assay [7], 319.9 pmol/min/mg.
Regarding `CCCCCCCOc1ccc(CC[C@@](C)(N)CO)cc1` [(R)-AAL, 2-amino-2-methyl-4-[4-heptoxy-phenyl]butane-1-ol], the “VE-cadherin localization at cell-cell contact regions / translocation to adherens junctions” value in assay [1] was “did not induce VE-cadherin translocation to the adherens junctions”. Further, the “inhibition of vascular permeability induced by VEGF” value in assay [3] was “potently inhibited vascular permeability in vivo”. Also, in assay [4], the “migration induced by conditioned medium” value is recorded as “activated into potent chemoattractants for endothelial cells” and the “induction of endothelial cell migration” value is on record as “Neither FTY720 nor its structural analog (R)-AAL induced endothelial cell migration”. Also, in assay [6], the “specific activity” value amounted to 15 ± 0.93 pmol/mg/min. Further, the “specific activity” value in assay [7] stood at 199.5 pmol/min/mg.
